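Briefly, cells in 96-well plates were exposed to five compound concentrations for 48 h, and endpoints were estimated by linear interpolation. Abbreviation: GI50, concentration required for 50% inhibition of growth. Definition used: TGI = concentration required for complete inhibition of growth.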 Where only a bound is given, the exact number is not on record here.

Among the test systems are 786-0 renal; COLO 205 colon; IGROV1 ovarian; LOX IMVI melanoma; MALME-3M melanoma; MDA-MB-435; NCI-H460 lung; NCI-H522 lung; OVCAR-4 ovarian; OVCAR-5 ovarian; PC-3 prostate; SN12C renal; SNB-19 CNS; SW-620 colon; T-47D breast; TK-10 renal; U251 CNS; UACC-257 melanoma.
Common to all, as to assay: inhibition of tumour cell growth, NCI panel, 48 h

With `CCCCc1ccc(N=C(N)N)cc1`, the TGI was 48.8 µM in the assay on 786-0 renal; 35.4 µM in the assay on COLO 205 colon; 71.7 µM in the assay on IGROV1 ovarian; greater than 100 µM in the assay with LOX IMVI melanoma; greater than 100 µM with MALME-3M melanoma; greater than 100 µM in the assay with MDA-MB-435. Also, the TGI in the assay with NCI-H460 lung is 61.8 µM; in the assay with NCI-H522 lung, greater than 100 µM; in the assay with OVCAR-4 ovarian, greater than 100 µM; in the assay on OVCAR-5 ovarian it was greater than 100 µM; in the assay on PC-3 prostate it was greater than 100 µM; with SN12C renal, greater than 100 µM. Moreover, the TGI is greater than 100 µM in the assay with SNB-19 CNS; greater than 100 µM in the assay with SW-620 colon; greater than 100 µM in the assay with T-47D breast; 63.9 µM with TK-10 renal; greater than 100 µM with U251 CNS; greater than 100 µM with UACC-257 melanoma.
`Cc1c2ccccc2c(C2C3C(=O)N(c4ccc(Br)cc4)C(=O)C3ON2C(C(N)=O)c2ccccc2)c2ccccc12` (centres undefined): the TGI was determined as 33.1 µM with 786-0 renal; 3.33 µM with COLO 205 colon; 18.2 µM with IGROV1 ovarian; 18.6 µM in the assay with LOX IMVI melanoma; 34.1 µM in the assay with MALME-3M melanoma; 12.9 µM in the assay on MDA-MB-435. For the same compound, the TGI with NCI-H460 lung was 22.2 µM; with NCI-H522 lung, 9 µM; with OVCAR-4 ovarian, greater than 100 µM; in the assay with OVCAR-5 ovarian, 23.2 µM; in the assay with PC-3 prostate, greater than 100 µM; in the assay with SN12C renal it was 53.5 µM. Further, the TGI with SNB-19 CNS was 22.6 µM; with SW-620 colon, greater than 100 µM; with T-47D breast, 36.4 µM; in the assay on U251 CNS, 8.94 µM; with UACC-257 melanoma, 62.4 µM.
As for `COc1cc2c(c(OC)c1OC)-c1ccc(OC)c(=O)cc1C(NC(=O)COc1ccccc1)CC2` (centres undefined), the TGI was 93.8 µM in the assay on 786-0 renal; less than 0.01 µM with COLO 205 colon; greater than 92.3 µM with IGROV1 ovarian; greater than 82.6 µM in the assay on LOX IMVI melanoma; greater than 100 µM in the assay on MALME-3M melanoma; less than 0.01 µM in the assay with MDA-MB-435. Besides, the TGI in the assay on NCI-H460 lung is greater than 10.6 µM; in the assay on NCI-H522 lung it was less than 0.01 µM; with OVCAR-4 ovarian, greater than 84 µM; with OVCAR-5 ovarian, greater than 100 µM; with PC-3 prostate it was greater than 100 µM; with SN12C renal, greater than 100 µM. Moreover, the TGI is greater than 100 µM in the assay on SNB-19 CNS; greater than 95.2 µM in the assay with SW-620 colon; greater than 100 µM with T-47D breast; greater than 93.7 µM in the assay on TK-10 renal; 13 µM in the assay on U251 CNS; greater than 100 µM in the assay with UACC-257 melanoma.
Turning to `COC1/C=C(C)/C=C/C(C)/C=C/C(=O)OC(/C(C)=C/C=C(\C)CNC(=O)[C@H](CO)NC=O)C(C)/C=C/C=C/C(OC)CC/C=C(C)/C=C/C1` (some centres undefined), the TGI in the assay with 786-0 renal was greater than 1 µM; in the assay with COLO 205 colon, greater than 1 µM; with IGROV1 ovarian, greater than 1 µM; with LOX IMVI melanoma it was greater than 1 µM; in the assay with MALME-3M melanoma it was 0.385 µM; in the assay on MDA-MB-435 it was 0.047 µM. Also, the TGI was greater than 1 µM with NCI-H460 lung; greater than 1 µM with NCI-H522 lung; greater than 1 µM with OVCAR-4 ovarian; greater than 1 µM in the assay on OVCAR-5 ovarian; greater than 0.352 µM in the assay on PC-3 prostate; greater than 1 µM in the assay on SN12C renal. Further, the TGI in the assay on SNB-19 CNS was greater than 1 µM; in the assay with SW-620 colon it was greater than 1 µM; in the assay on T-47D breast, greater than 1 µM; in the assay with TK-10 renal, greater than 1 µM; with U251 CNS it was greater than 1 µM; in the assay with UACC-257 melanoma it was greater than 0.206 µM. The GI50 in the assay on COLO 205 colon was 0.0331 µM; in the assay on NCI-H522 lung, 0.0362 µM.
`C[C@@H]1C[C@H]2[C@@H]3CCC4=CC(=O)C=C[C@]4(C)[C@@]3(F)[C@@H](O)C[C@]2(C)[C@@]1(O)C(=O)CO`: the TGI with 786-0 renal, in the assay with COLO 205 colon, in the assay on IGROV1 ovarian, in the assay on LOX IMVI melanoma, in the assay on MALME-3M melanoma and in the assay on NCI-H522 lung was greater than 100 µM throughout. Moreover, the TGI in the assay with OVCAR-4 ovarian, with OVCAR-5 ovarian, in the assay on SN12C renal, in the assay on SW-620 colon, in the assay on TK-10 renal and with UACC-257 melanoma was greater than 100 µM throughout.
Consider `CC(C)(C)[Si](OC1CCOC1=O)(c1ccccc1)c1ccccc1` (centres undefined), for which the TGI in the assay on COLO 205 colon was greater than 10 µM; with IGROV1 ovarian it was greater than 100 µM; in the assay with LOX IMVI melanoma, 32.2 µM; in the assay on MALME-3M melanoma it was 45.1 µM; in the assay on NCI-H460 lung, 49.3 µM; with NCI-H522 lung, 38 µM. In addition, the TGI with OVCAR-5 ovarian is greater than 100 µM; with SN12C renal, 33.5 µM; in the assay with SNB-19 CNS it was greater than 100 µM; with SW-620 colon, greater than 100 µM; in the assay with TK-10 renal it was 84.6 µM; in the assay on U251 CNS it was 30.1 µM. In addition, the TGI with UACC-257 melanoma was found to be 50.4 µM.
Consider `CC(=O)Nc1ccc2c(c1)/C(=C\c1ccc([N+](C)(C)C)cc1)c1ccccc1-2`, for which the TGI in the assay with 786-0 renal is greater than 100 µM; with COLO 205 colon, 35.6 µM; in the assay on IGROV1 ovarian, greater than 100 µM; in the assay with LOX IMVI melanoma, greater than 100 µM; in the assay with MALME-3M melanoma, greater than 100 µM; in the assay on MDA-MB-435, greater than 100 µM. Moreover, the TGI is greater than 100 µM in the assay on NCI-H460 lung; greater than 100 µM with NCI-H522 lung; greater than 100 µM in the assay on OVCAR-4 ovarian; 80.4 µM with OVCAR-5 ovarian; greater than 100 µM with PC-3 prostate; greater than 100 µM in the assay with SN12C renal. The TGI in the assay on SNB-19 CNS was greater than 100 µM; in the assay on SW-620 colon, greater than 100 µM; in the assay with T-47D breast, 90.1 µM; in the assay with TK-10 renal, greater than 100 µM; with U251 CNS, greater than 100 µM; with UACC-257 melanoma, 79.1 µM.
Consider `CC(=O)Oc1ccccc1`, for which the TGI with 786-0 renal, in the assay on IGROV1 ovarian, in the assay on LOX IMVI melanoma, with MALME-3M melanoma, with NCI-H460 lung and with NCI-H522 lung was greater than 100 µM each time. The TGI in the assay on OVCAR-4 ovarian, in the assay with OVCAR-5 ovarian, with SN12C renal, with SNB-19 CNS, with SW-620 colon and in the assay with U251 CNS was greater than 100 µM each time. This compound registered a TGI in the assay with UACC-257 melanoma greater than 100 µM.

The values are drawn from PubChem BioAssay (NCI).
